PubChem BioAssay AID2060612 (Molecular Pharmacology Branch, DTP, NCI, 2025)
Where “and” joins values, the source holds several entries; their conditions need not be identical. Identical values can stand only once.

System: 565232-114-T-J1-PDC complex spheroid viability
Experiment: Anticancer human tumor 565232-114-T-J1-PDC patient-derived bladder carcinoma cell line growth inhibition [CLK]
Details: for viability, T/C: stronger effect = lower value
Summary of the method: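 Patient-derived tumor cells grown as complex spheroids with HUVEC endothelial cells and mesenchymal stem cells, treated with drug combinations. Concentrations descend in half-log steps from near clinical Cmax, or from 10 microM if Cmax unknown.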

[1] = curve of first compound, second compound 0.0316 µM
[2] = curve of first compound, second compound 0.1 µM
[3] = curve of first compound, second compound 0.316 µM
[4] = curve of first compound, second compound 1 µM
[5] = curve of first compound, second compound 3.16 µM
[6] = curve of first compound, second compound 10 µM
[7] = second compound 0.0316 µM, first compound 0.0316 µM
[8] = second compound 0.0316 µM, first compound 0.1 µM
[9] = second compound 0.0316 µM, first compound 0.316 µM
[10] = second compound 0.0316 µM, first compound 1 µM
[11] = second compound 0.0316 µM, first compound 3.16 µM
[12] = second compound 0.0316 µM, first compound 10 µM
[13] = second compound 0.1 µM, first compound 0.0316 µM
[14] = second compound 0.1 µM, first compound 0.1 µM
[15] = second compound 0.1 µM, first compound 0.316 µM
[16] = second compound 0.1 µM, first compound 1 µM
[17] = second compound 0.1 µM, first compound 3.16 µM
[18] = second compound 0.1 µM, first compound 10 µM
[19] = second compound 0.316 µM, first compound 0.0316 µM
[20] = second compound 0.316 µM, first compound 0.1 µM
[21] = second compound 0.316 µM, first compound 0.316 µM
[22] = second compound 0.316 µM, first compound 1 µM
[23] = second compound 0.316 µM, first compound 3.16 µM
[24] = second compound 0.316 µM, first compound 10 µM
[25] = second compound 1 µM, first compound 0.0316 µM
[26] = second compound 1 µM, first compound 0.1 µM
[27] = second compound 1 µM, first compound 0.316 µM
[28] = second compound 1 µM, first compound 1 µM
[29] = second compound 1 µM, first compound 3.16 µM
[30] = second compound 1 µM, first compound 10 µM
[31] = second compound 3.16 µM, first compound 0.0316 µM
[32] = second compound 3.16 µM, first compound 0.1 µM
[33] = second compound 3.16 µM, first compound 0.316 µM
[34] = second compound 3.16 µM, first compound 1 µM
[35] = second compound 3.16 µM, first compound 3.16 µM
[36] = second compound 3.16 µM, first compound 10 µM
[37] = second compound 10 µM, first compound 0.0316 µM
[38] = second compound 10 µM, first compound 0.1 µM
[39] = second compound 10 µM, first compound 0.316 µM
[40] = second compound 10 µM, first compound 1 µM
[41] = second compound 10 µM, first compound 3.16 µM
[42] = second compound 10 µM, first compound 10 µM
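Note: spheroids exposed to compounds for 7 days before readout.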
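Throughout, for viability, T/C: 100% = DMSO vehicle wells with luminescence normalized to vehicle control.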

**Q.** With `COc1ccc([C@@H](O)c2cc(-c3ncnc4cc(N5CCOCC5)ccc34)c(F)cc2Cl)nn1` + CNC(=O)c1ccc(Nc2nc(OC3CCCC3)c3c(-c4ccc5nc(C)oc5c4)c[nH]c3n2)c(OC)c1 as the compound, how does the IC50 [1] read?
**A.** The IC50 was greater than 10000 nM.

**Q.** What about the IC50 [2] of the same compound?
**A.** Its IC50 is less than 31.6 nM.

**Q.** What about the IC50 [3] of the same compound?
**A.** Its IC50 is less than 31.6 nM.

**Q.** And the IC50 [4]?
**A.** Its IC50 is less than 31.6 nM.

**Q.** What about the IC50 [5] of the same compound?
**A.** Its IC50 is less than 31.6 nM.

**Q.** And the IC50 [6]?
**A.** Its IC50 is less than 31.6 nM.

**Q.** And the viability, T/C [7]?
**A.** The viability, T/C was 87.3%.

**Q.** What about the viability, T/C [8] of the same compound?
**A.** The viability, T/C was 87.1%.

**Q.** What about the viability, T/C [9] of the same compound?
**A.** Its viability, T/C is 98.5%.

**Q.** And the viability, T/C [10]?
**A.** Its viability, T/C is 113%.

**Q.** And the viability, T/C [11]?
**A.** Its viability, T/C is 115%.

**Q.** And the viability, T/C [12]?
**A.** The viability, T/C was 88.6%.

**Q.** What about the viability, T/C [13] of the same compound?
**A.** The viability, T/C was 47%.

**Q.** What about the viability, T/C [14] of the same compound?
**A.** The viability, T/C was 41.6%.

**Q.** What about the viability, T/C [15] of the same compound?
**A.** Its viability, T/C is 36.9%.

**Q.** And the viability, T/C [16]?
**A.** The viability, T/C was 34.3%.

**Q.** What about the viability, T/C [17] of the same compound?
**A.** The viability, T/C was 34.6%.

**Q.** What about the viability, T/C [18] of the same compound?
**A.** The viability, T/C was 35.8%.

**Q.** What about the viability, T/C [19] of the same compound?
**A.** Its viability, T/C is 26.4%.

**Q.** What about the viability, T/C [20] of the same compound?
**A.** The viability, T/C was 29.9%.

**Q.** What about the viability, T/C [21] of the same compound?
**A.** The viability, T/C was 27.9%.

**Q.** And the viability, T/C [22]?
**A.** The viability, T/C was 32%.

**Q.** What about the viability, T/C [23] of the same compound?
**A.** The viability, T/C was 24.5%.

**Q.** And the viability, T/C [24]?
**A.** The viability, T/C was 24.8%.

**Q.** And the viability, T/C [25]?
**A.** Its viability, T/C is 23.8%.

**Q.** What about the viability, T/C [26] of the same compound?
**A.** Its viability, T/C is 22.1%.

**Q.** And the viability, T/C [27]?
**A.** Its viability, T/C is 19.9%.

**Q.** What about the viability, T/C [28] of the same compound?
**A.** The viability, T/C was 22.1%.

**Q.** And the viability, T/C [29]?
**A.** Its viability, T/C is 23%.

**Q.** What about the viability, T/C [30] of the same compound?
**A.** Its viability, T/C is 19.2%.

**Q.** And the viability, T/C [31]?
**A.** Its viability, T/C is 15.7%.

**Q.** And the viability, T/C [32]?
**A.** Its viability, T/C is 19.6%.

**Q.** What about the viability, T/C [33] of the same compound?
**A.** The viability, T/C was 17.4%.

**Q.** And the viability, T/C [34]?
**A.** Its viability, T/C is 14.5%.

**Q.** And the viability, T/C [35]?
**A.** Its viability, T/C is 14.9%.

**Q.** And the viability, T/C [36]?
**A.** Its viability, T/C is 13.6%.

**Q.** And the viability, T/C [37]?
**A.** The viability, T/C was 19%.

**Q.** And the viability, T/C [38]?
**A.** The viability, T/C was 17.1%.

**Q.** What about the viability, T/C [39] of the same compound?
**A.** Its viability, T/C is 14.4%.

**Q.** What about the viability, T/C [40] of the same compound?
**A.** The viability, T/C was 15.9%.

**Q.** What about the viability, T/C [41] of the same compound?
**A.** The viability, T/C was 15.2%.

**Q.** What about the viability, T/C [42] of the same compound?
**A.** The viability, T/C was 15.8%.

**Q.** `C#Cc1c(F)ccc2cc(O)cc(-c3ncc4c(N5CC6CCC(C5)N6)nc(OCC56CCCN5CC(F)C6)nc4c3F)c12` (stereo unspecified) + CN1CCN(c2cc(C(=O)Nc3cc4cc(-c5cnn(C)c5)ccc4cn3)ccn2)CC1 was tested. Which IC50 [1] did it give?
**A.** Its IC50 is greater than 10000 nM.

**Q.** What about the IC50 [2] of the same compound?
**A.** The IC50 was greater than 10000 nM.

**Q.** What about the IC50 [3] of the same compound?
**A.** The IC50 was less than 31.6 nM.

**Q.** And the IC50 [4]?
**A.** Its IC50 is less than 31.6 nM.

**Q.** And the IC50 [5]?
**A.** The IC50 was less than 31.6 nM.

**Q.** And the IC50 [6]?
**A.** The IC50 was less than 31.6 nM.

**Q.** What about the viability, T/C [7] of the same compound?
**A.** Its viability, T/C is 104%.

**Q.** And the viability, T/C [8]?
**A.** Its viability, T/C is 75.3%.

**Q.** What about the viability, T/C [9] of the same compound?
**A.** Its viability, T/C is 106%.

**Q.** And the viability, T/C [10]?
**A.** The viability, T/C was 113%.

**Q.** And the viability, T/C [11]?
**A.** Its viability, T/C is 93.2%.

**Q.** What about the viability, T/C [12] of the same compound?
**A.** Its viability, T/C is 101%.

**Q.** And the viability, T/C [13]?
**A.** Its viability, T/C is 96.8%.

**Q.** What about the viability, T/C [14] of the same compound?
**A.** Its viability, T/C is 76.8%.

**Q.** And the viability, T/C [15]?
**A.** The viability, T/C was 102%.

**Q.** What about the viability, T/C [16] of the same compound?
**A.** Its viability, T/C is 86%.

**Q.** What about the viability, T/C [17] of the same compound?
**A.** The viability, T/C was 101%.

**Q.** And the viability, T/C [18]?
**A.** The viability, T/C was 107%.

**Q.** And the viability, T/C [19]?
**A.** Its viability, T/C is 25%.

**Q.** What about the viability, T/C [20] of the same compound?
**A.** Its viability, T/C is 29.1%.

**Q.** And the viability, T/C [21]?
**A.** Its viability, T/C is 26.9%.

**Q.** And the viability, T/C [22]?
**A.** Its viability, T/C is 28.1%.

**Q.** And the viability, T/C [23]?
**A.** The viability, T/C was 21.8%.

**Q.** And the viability, T/C [24]?
**A.** The viability, T/C was 21.1%.

**Q.** And the viability, T/C [25]?
**A.** The viability, T/C was 0.26%.

**Q.** And the viability, T/C [26]?
**A.** The viability, T/C was 0.25%.

**Q.** And the viability, T/C [27]?
**A.** Its viability, T/C is 0.72%.

**Q.** And the viability, T/C [28]?
**A.** The viability, T/C was 0.3%.

**Q.** And the viability, T/C [29]?
**A.** Its viability, T/C is 1.23%.

**Q.** What about the viability, T/C [30] of the same compound?
**A.** The viability, T/C was 0.75%.

**Q.** And the viability, T/C [31]?
**A.** Its viability, T/C is 0.23%.

**Q.** And the viability, T/C [32]?
**A.** The viability, T/C was 3.14%.

**Q.** What about the viability, T/C [33] of the same compound?
**A.** Its viability, T/C is 0.23%.

**Q.** What about the viability, T/C [34] of the same compound?
**A.** Its viability, T/C is 0.18%.

**Q.** What about the viability, T/C [35] of the same compound?
**A.** The viability, T/C was 2.07%.

**Q.** What about the viability, T/C [36] of the same compound?
**A.** The viability, T/C was 0.17%.

**Q.** And the viability, T/C [37]?
**A.** The viability, T/C was 0.21%.

**Q.** What about the viability, T/C [38] of the same compound?
**A.** The viability, T/C was 1.2%.

**Q.** And the viability, T/C [39]?
**A.** Its viability, T/C is 2.26%.

**Q.** And the viability, T/C [40]?
**A.** Its viability, T/C is 0.7%.

**Q.** What about the viability, T/C [41] of the same compound?
**A.** The viability, T/C was 3.78%.

**Q.** And the viability, T/C [42]?
**A.** The viability, T/C was 0.83%.

**Q.** How did the viability, T/C (compound 0.0316 µM) turn out when `CC1COCCN1c1cc(C2(S(C)(=N)=O)CC2)nc(-c2ccnc3[nH]ccc23)n1` (stereo unspecified) was run?
**A.** Its viability, T/C is 83.5% and 105%.

**Q.** And the viability, T/C (compound 0.1 µM)?
**A.** Its viability, T/C is 88.9% and 90.1%.

**Q.** What about the viability, T/C (compound 0.316 µM) of the same compound?
**A.** Its viability, T/C is 101% and 94.8%.

**Q.** And the viability, T/C (compound 1 µM)?
**A.** The viability, T/C was 88% and 99.1%.

**Q.** And the viability, T/C (compound 3.16 µM)?
**A.** Its viability, T/C is 76.2% and 99.8%.

**Q.** What about the viability, T/C (compound 10 µM) of the same compound?
**A.** The viability, T/C was 63.5% and 25.8%.

**Q.** And the IC50 (curve of compound)?
**A.** Its IC50 is > 10000 nM and 6780 nM.
